Source: ChEMBL document CHEMBL4266057, “Optimization of Preclinical Metabolism for Somatostatin Receptor Subtype 5-Selective Antagonists” (ACS Med Chem Lett, 2018)

Tests used:
in vitro [1] = settings: human, liver microsomes
in vitro [2] = settings: rhesus monkey, liver microsomes
[3] = Drug level in rhesus monkey plasma treated with 4-(8-((2,6-diethoxy-4'-fluorobiphenyl-4-yl)methyl)-3-oxo-2,8-diazaspiro[4.5]decan-2-yl)benzoic acid at 50 mg/kg, po qd for 5 days by HPLC analysis; assay type: ADME, organism-based, Macaca mulatta; settings: in vivo, 120 h
[4] = Metabolic stability in Beagle dog liver microsomes at 1 uM after 30 mins; assay type: ADME, Canis lupus familiaris, microsome; settings: read-out: Stability
[5] = Fraction unbound in high fat diet fed C57BL/6N mouse plasma at 3 mg/kg, po after 3 hrs; assay type: ADME, organism-based; settings: in vivo
[6] = Drug metabolism in rhesus monkey plasma assessed as oxidation of biphenyl ring at 50 mg/kg, po qd for 5 days by HPLC analysis; assay type: ADME, organism-based, Macaca mulatta; settings: in vivo, 120 h
[7] = Metabolic stability in rat liver microsomes at 1 uM after 30 mins; assay type: ADME, microsome; settings: read-out: Stability
[8] = Drug metabolism in rhesus monkey plasma assessed as hydroxylation of benzoic acid at 50 mg/kg, po qd for 5 days by HPLC analysis; assay type: ADME, organism-based, Macaca mulatta; settings: in vivo, 120 h
in vivo [9] = settings: Sprague-Dawley, rat
[10] = Drug metabolism in rhesus monkey plasma assessed as de-ethylation of ethoxyl group at 50 mg/kg, po qd for 5 days by HPLC analysis; assay type: ADME, organism-based, Macaca mulatta; settings: in vivo, 120 h
[11] = Drug metabolism in rhesus monkey plasma assessed as glucuronidation of carboxylic acid at 50 mg/kg, po qd for 5 days by HPLC analysis; assay type: ADME, organism-based, Macaca mulatta; settings: in vivo, 120 h
in vivo [12] = settings: Sprague-Dawley, rat, iv, 1 mg/kg
in vivo [13] = settings: Sprague-Dawley, rat, po, 2 mg/kg
in vivo [14] = settings: rhesus monkey, po, 5 mg/kg
in vivo [15] = settings: Sprague-Dawley, rat; remark: listed apart in the source
in vivo [16] = settings: rhesus monkey, po, 5 mg/kg; remark: listed apart in the source
in vivo [17] = settings: rhesus monkey, plasma, po, 5 mg/kg

Cc1cc(-c2ccc(F)c(F)c2F)c(CN2CCC3(CC2)CC(=O)N(c2ccc(C(=O)O)cc2)C3)cc1C(F)(F)F
remaining at 0.5 h, 1 µM (in vitro [1]): 100%
remaining at 0.5 h, 1 µM (in vitro [2]): 94%

CCOc1cc(CN2CCC3(CC2)CC(=O)N(c2ccc(C(=O)O[C@@H]4O[C@H](C(=O)O)[C@@H](O)[C@H](O)[C@H]4O)cc2)C3)cc(OCC)c1-c1ccc(F)cc1
Drug metabolism [3]: Metabolite_Detected

Cc1cccc2c(CN3CCC4(CC3)CC(=O)N(c3ccc(C(=O)O)cc3)C4)cn(C(C)C)c12
remaining at 0.5 h, 1 µM (in vitro [1]): 100%
remaining at 0.5 h, 1 µM (in vitro [2]): 95%

CCOc1cc(CN2CCC3(CC2)CC(=O)N(c2ccc(C(=O)O)cc2)C3)cc(OCC)c1-c1ccc(F)cc1
remaining at 0.5 h, 1 µM [4]: > 80%
Cp(f) [5]: 16 nM
Drug metabolism [6]: Metabolite_Detected
remaining at 0.5 h, 1 µM (in vitro [1]): 92%
remaining at 0.5 h, 1 µM [7]: > 80%
Drug metabolism [8]: Metabolite_Detected
AUC (in vivo [9]): 1.67 µM·h
remaining at 0.5 h, 1 µM (in vitro [2]): 28%
Drug metabolism [10]: Metabolite_Detected
Drug metabolism [11]: Metabolite_Detected

O=C(O)c1ccc(N2CC3(CCN(Cc4cc(C(F)(F)F)ccc4C4CC4)CC3)OC2=O)cc1
clearance (in vivo [12]): 3.4 mL/min/kg
bioavailability (in vivo [13]): 85%
Cmax (in vivo [14]): 2990 nM
remaining at 0.5 h, 1 µM (in vitro [1]): 99%
half-life (in vivo [15]): 1.6 h
AUC (in vivo [16]): 31.2 µM·h
AUC (in vivo [9]): 8.5 µM·h
remaining at 0.5 h, 1 µM (in vitro [2]): 94%
concentration at 24 h (in vivo [17]): 470 nM
